Measured values as given in patent publication US10233186B2, “Inhibitors of activin receptor-like kinase” (BLUEPRINT MEDICINES CORPORATION, priority 2016, dated 2019).

How the values were obtained:
[1] = target: T1, ALK2 R206H (GST-tagged mutant ALK2) (Homo sapiens, UniProt Q04771, R206H); assay: ALK binding assay (LANTHASCREEN TR-FRET competitive binding, displacement of Kinase Tracer 178); details: ALK2 R206H, LANTHASCREEN TR-FRET competitive binding; read-out: Binding Assay (IC50)
T1 construct: purchased Carna Bioscience or ThermoFisher 09-148 or PV6232
T1 sequence (Q04771 21-509 R206H): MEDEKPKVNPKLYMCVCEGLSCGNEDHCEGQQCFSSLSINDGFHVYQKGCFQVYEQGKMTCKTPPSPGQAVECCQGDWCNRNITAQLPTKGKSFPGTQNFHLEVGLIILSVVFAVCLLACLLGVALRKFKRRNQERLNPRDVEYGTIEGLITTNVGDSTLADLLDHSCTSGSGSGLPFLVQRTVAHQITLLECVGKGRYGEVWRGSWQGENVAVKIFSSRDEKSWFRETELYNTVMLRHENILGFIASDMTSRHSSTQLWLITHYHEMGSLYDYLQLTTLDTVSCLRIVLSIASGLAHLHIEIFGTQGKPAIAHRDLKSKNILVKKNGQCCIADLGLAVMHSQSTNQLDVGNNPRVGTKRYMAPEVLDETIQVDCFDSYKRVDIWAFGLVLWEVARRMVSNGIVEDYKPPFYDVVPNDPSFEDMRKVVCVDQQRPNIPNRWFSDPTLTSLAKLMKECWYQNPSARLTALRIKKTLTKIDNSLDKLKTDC

[2] = target: T2, human ALK2 R206H (Homo sapiens, UniProt Q04771, R206H); assay: Cell-based ALK2-R206H cell activity assay (Smad1-Ser463/Ser465 phosphorylation by AlphaLISA in HEK293-ALK2-R206H cells); details: read-out: Cell Line (Cell Assay IC50)
T2 construct: expressed in transfected cells; host or cells: HEK293 (ATCC CRL1573), lentivirus transduction, blasticidin selection
T2 sequence (Q04771 21-509 R206H): T1 sequence (Q04771 21-509 R206H)
In short: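 Stable HEK293 cells expressing C-terminally FLAG-tagged human ALK2 R206H (lentiviral, blasticidin-selected) were treated with compounds in 10-point, 3-fold dilutions from 10 μM or 1 μM top, in duplicate. Smad1 Ser463/Ser465 phosphorylation was read by AlphaLISA.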

| Structure (SMILES) | IC50 [1] [nM] | IC50 [2] [nM] |
| --- | --- | --- |
| CC(C)N1CC[C@H](c2ccc(-c3cc4c(N5CCN(C(=O)C6CC6)CC5)ccnn4c3)nc2)C1 [Compound 486] | < 10 | < 100 |
| CC(C)N1CCC[C@@H]1c1ccc(-c2cc3c(N4CCN(C(=O)C5CC5)CC4)ccnn3c2)cn1 [Compound 487] | < 10 | < 100 |
| COC1(c2ccc(-c3cc4c(N5CCN(C(=O)C6CC6)CC5)ccnn4c3)cc2)CCNCC1 [Compound 488] | < 10 | < 100 |
| CO[C@]1(c2ccc(-c3cc4c(N5CCN(C(=O)C6CC6)CC5)ccnn4c3)cc2)CCCNC1 [Compound 489] | < 10 | < 100 |
| CO[C@@]1(c2ccc(-c3cc4c(N5CCN(C(=O)C6CC6)CC5)ccnn4c3)cc2)CCCNC1 [Compound 490] | < 10 | < 100 |
| COC1(c2ccc(-c3cc4c(N5CCN(C(=O)C6CC6)CC5)ccnn4c3)nc2)CCNCC1 [Compound 491] | < 10 | < 100 |
| CC(C)NC(=O)N1CCN(c2ccnn3cc(-c4ccc(C5(C)CCNCC5)cc4)cc23)CC1 [Compound 492] | < 10 | < 100 |
| CC(C)NC(C)(CO)c1ccc(-c2cc3c(N4CCN(C(=O)C5CC5)CC4)ccnn3c2)cc1 (stereo not shown) [Compound 493] | < 10 | < 100 |
| CCNC(=O)N1CCN(c2ccnn3cc(-c4ccc([C@@H]5CCCN5C(C)C)nc4)cc23)CC1 [Compound 494] | < 10 | < 100 |
| CCNC(=O)N1CCN(c2ccnn3cc(-c4ccc([C@@H]5CCN(C(C)C)C5)cn4)cc23)CC1 [Compound 495] | < 10 | < 100 |
| CCNC(=O)N1CCN(c2ccnn3cc(-c4ccc([C@H]5CCN(C(C)C)C5)cn4)cc23)CC1 [Compound 496] | < 10 | < 100 |
| CCNC(=O)N1CCN(c2ccnn3cc(-c4ccc([C@H]5CCCN5C(C)C)nc4)cc23)CC1 [Compound 497] | < 10 | < 100 |
| CCOC(=O)N1CCN(c2ccnn3cc(-c4ccc(C5(OC)CCNCC5)cc4)cc23)CC1 [Compound 498] | < 10 | < 100 |
| CC(C)NC(=O)N1CCN(c2ccnn3cc(-c4ccc(C5(F)CCNCC5)cc4)cc23)CC1 [Compound 499] | < 10 | 100 to 500 |
| N#C[C@H]1C[C@H](C(=O)N2CCN(c3ccnn4cc(-c5ccc([C@@H]6CCCNC6)cn5)cc34)CC2)C1 [Compound 500] | < 10 | 100 to 500 |
| O=C(C1CC1)N1CCN(c2ccnn3cc(-c4ccc(C5(O)CN6CCC5CC6)cc4)cc23)CC1 (stereo not shown) [Compound 501] | < 10 | 100 to 500 |
| CC(C)NC(=O)N1CCN(c2ccnn3cc(-c4ccc(C5(C#N)CCNCC5)cc4)cc23)CC1 [Compound 502] | < 10 | < 100 |
| Cc1cc(-c2cc3c(N4CCN(C(=O)C5CC5)CC4)ccnn3c2)ccc1[C@@H]1CCN(C(C)C)C1 [Compound 503] | < 10 | 100 to 500 |
| Cc1cc(-c2cc3c(N4CCN(C(=O)C5CC5)CC4)ccnn3c2)ccc1[C@H]1CCN(C(C)C)C1 [Compound 504] | < 10 | 100 to 500 |
| CC(C)N1C[C@@H](c2ccc(-c3cc4c(N5CCN(C(=O)C6CC6)CC5)ccnn4c3)cc2)C[C@H]1C [Compound 505] | < 10 | < 100 |
| CC(C)N1C[C@H](c2ccc(-c3cc4c(N5CCN(C(=O)C6CC6)CC5)ccnn4c3)cc2)C[C@@H]1C [Compound 507] | < 10 | < 100 |
| CC(C)N1C[C@@H](c2ccc(-c3cc4c(N5CCN(C(=O)C6CC6)CC5)ccnn4c3)cc2)C[C@@H]1C [Compound 508] | < 10 | 100 to 500 |

| Structure (SMILES) | IC50 [1] [nM] | IC50 [2] [nM] |
| --- | --- | --- |
| CC(C)N1CCC[C@@]1(C)c1ccc(-c2cc3c(N4CCN(C(=O)C5CC5)CC4)ccnn3c2)cc1 [Compound 509] | < 10 | < 100 |
| CC(C)N1CCC[C@]1(C)c1ccc(-c2cc3c(N4CCN(C(=O)C5CC5)CC4)ccnn3c2)cc1 [Compound 510] | < 10 | < 100 |
| N#C[C@H]1C[C@@H]1C(=O)N1CCN(c2ccnn3cc(-c4ccc([C@]5(F)CCCNC5)cc4)cc23)CC1 [Compound 511] | < 10 | < 100 |
| N#C[C@@H]1C[C@H]1C(=O)N1CCN(c2ccnn3cc(-c4ccc([C@]5(F)CCCNC5)cc4)cc23)CC1 [Compound 512] | < 10 | < 100 |
| N#C[C@H]1C[C@@H]1C(=O)N1CCN(c2ccnn3cc(-c4ccc([C@@]5(F)CCCNC5)cc4)cc23)CC1 [Compound 513] | < 10 | < 100 |
| N#C[C@@H]1C[C@H]1C(=O)N1CCN(c2ccnn3cc(-c4ccc([C@@]5(F)CCCNC5)cc4)cc23)CC1 [Compound 514] | < 10 | < 100 |
| O=C(C1CC1)N1CCN(c2ccnn3cc(-c4ccc(C5CN6CCSC6=N5)cc4)cc23)CC1 (stereo not shown) [Compound 515] | < 10 | < 100 |
| CC(C)N1CCNC(c2ccc(-c3cc4c(N5CCN(C(=O)C6CC6)CC5)ccnn4c3)cc2)C1 (stereo not shown) [Compound 516] | < 10 | < 100 |
| CC(C)N1CCN[C@H](c2ccc(-c3cc4c(N5CCN(C(=O)C6CC6)CC5)ccnn4c3)cc2)C1 [Compound 517] | < 10 | < 100 |
| CC(C)N1CCN[C@@H](c2ccc(-c3cc4c(N5CCN(C(=O)C6CC6)CC5)ccnn4c3)cc2)C1 [Compound 518] | < 10 | < 100 |
| CC(C)NC(=O)N1CCN(c2ccnn3cc(-c4ccc(C56CCN(CC5)CC6)cc4)cc23)CC1 [Compound 519] | < 10 | < 100 |
| CC(C)N1CCOCC1c1ccc(-c2cc3c(N4CCN(C(=O)C5CC5)CC4)ccnn3c2)cc1 (stereo not shown) [Compound 520] | < 10 | < 100 |
| COC1(c2ccc(-c3cc4c(N5CCN(C(=O)C6CC6)CC5)ccnn4c3)cc2)CN(C(C)C)C1 [Compound 521] | < 10 | < 100 |
| CC(C)N1CC[C@](O)(c2ccc(-c3cc4c(N5CCN(C(=O)C6CC6)CC5)ccnn4c3)cc2)C1 [Compound 522] | < 10 | < 100 |
| CC(C)N1CC[C@@](O)(c2ccc(-c3cc4c(N5CCN(C(=O)C6CC6)CC5)ccnn4c3)cc2)C1 [Compound 523] | < 10 | < 100 |
| CCOC1(c2ccc(-c3cc4c(N5CCN(C(=O)C6CC6)CC5)ccnn4c3)cc2)CCNCC1 [Compound 524] | < 10 | < 100 |
| CC(C)N1CC[C@@](O)(c2ccc(-c3cc4c(N5CCN(C(=O)C6CC6)CC5)ccnn4c3)nc2)C1 [Compound 526] | < 10 | < 100 |
| CC(C)N1CC[C@](O)(c2ccc(-c3cc4c(N5CCN(C(=O)C6CC6)CC5)ccnn4c3)nc2)C1 [Compound 527] | < 10 | < 100 |
| CCCNC(=O)N1CCN(c2ccnn3cc(-c4ccc([C@@H]5CCN(C(C)C)C5)cc4)cc23)CC1 [Compound 530] | < 10 | < 100 |
| CC(C)NC(=O)N1CCN(c2ccnn3cc(-c4ccc([C@@H]5CCN(C(C)C)C5)cc4)cc23)CC1 [Compound 531] | < 10 | < 100 |
| CCCNC(=O)N1CCN(c2ccnn3cc(-c4ccc([C@H]5CCN(C(C)C)C5)cc4)cc23)CC1 [Compound 532] | < 10 | < 100 |
| CC(C)NC(=O)N1CCN(c2ccnn3cc(-c4ccc([C@H]5CCN(C(C)C)C5)cc4)cc23)CC1 [Compound 533] | < 10 | < 100 |
